Here are results for 14 compounds from US20240400986A1, “MEMBRANE BOUND COMPOSITIONS AND METHODS RELATING TO SAME” (FLAGSHIP PIONEERING INNOVATIONS VII, LLC, priority 2021, published 2024).

In series [1] the test system is neuronal cell line derived from human neuroblastoma.
Procedure: For the screening, a total of 99 compounds (TargetMol) were divided in 5 groups. Each group included an untreated condition, a vehicular DMSO control, and a known high-gigasome producing condition to comparatively study gigasome production rates. As a cell death control group, 500 nM Staurosporine was added to induce apoptosis. Cultures were incubated for 24 hours under gigasome inducing conditions at concentrations ranging between 10 nM and 10,000 nM. Before the end of the treatment, live neuronal cultures were imaged. The Zeiss ZEN Blue software was used to distribute imaging fields of view (positions) to create an unbiased imaging sample of a well. 5 images were taken using a Zeiss LSM 900 confocal microscope. […] The BioApps ZEN software package was used to perform cell nucleus segmentation and counting. After 24 hours, gigasomes were harvested from the cell culture media by gently removing from the top of each 96-well ⅔ of the total volume without disturbing the cell layer (containing the settled gigasomes) and by adding to each well the same amount of PBS. […] Cells remaining in the 96-well plates were assessed for viability using CellTiter-Glo (Promega).
For series [2] the test system is unchanged. As to the kind of experiment: Small molecule compound screen of gigasome production in neuronal monocultures. The conditions noted are these: for fold induction at 0.01 µM / fold induction at 0.1 µM / fold induction at 1 µM / fold induction at 10 µM: Homo sapiens, read-out: Fold Change of Gigasomes Produced vs. DMSO; for Number of Gigasomes Produced / Fold Change of Gigasomes Produced vs. DMSO: 24 hours.
Source text: To quantify and characterize gigasome production using microscopy, while tracking cell viability/phenotype, a multi-readout system was developed that allowed simultaneous analysis of gigasomes harvested from cell culture media supernatants and respective gigasome producing cell viability. […] For the screening, a total of 99 compounds (TargetMol) were divided in 5 groups. Each group included an untreated condition, a vehicular DMSO control, and a known high-gigasome producing condition to comparatively study gigasome production rates. As a cell death control group, 500 nM Staurosporine was added to induce apoptosis. Cultures were incubated for 24 hours under gigasome inducing conditions at concentrations ranging between 10 nM and 10,000 nM. Before the end of the treatment, live neuronal cultures were imaged. The Zeiss ZEN Blue software was used to distribute imaging fields of view (positions) to create an unbiased imaging sample of a well. 5 images were taken using a Zeiss LSM 900 confocal microscope. […] The BioApps ZEN software package was used to perform cell nucleus segmentation and counting. After 24 hours, gigasomes were harvested from the cell culture media by gently removing from the top of each 96-well ⅔ of the total volume without disturbing the cell layer (containing the settled gigasomes) and by adding to each well the same amount of PBS. The wells were washed twice gently, and the gigasome-containing media/PBS wash was transferred into the well of a 384-well glass bottom plate. Cells remaining in the 96-well plates were assessed for viability using CellTiter-Glo (Promega).
For gigasome analysis in 384-well plates, the Zeiss ZEN Blue software was used to distribute positions to create an unbiased imaging sample of a well. 6 images per well were taken using a Zeiss LSM 900 confocal microscope.
A watershed binary segmentation step was performed to separate grouped objects. For each particle in the mask, characteristic parameters of the particle were calculated and saved.
Particles of interest were identified by thresholding by area and circularity. […] Circularity, defined by the formula 4pi(area/perimeter^2, was set to be between 0.8 and 1, where a value of 1.0 is a perfect circle, and a value of 0 is a line. Gigasomes were identified from the particles of interest by thresholding by mean nuclear signal. The nuclear signal threshold was set using a value equal to one fourth of a threshold value calculated by the Li auto-threshold algorithm applied to the distribution of all particles of interest. Particles of interest with nuclear signal below this value were considered “negative” for nuclear material and were identified as gigasomes. A sampling factor was calculated to extrapolate the total quantity of a type of object (particles, particles of interest, gigasomes) in the well. The sampling factor was the percentage of the well's area that was imaged. […] The normalized quantity or distribution of objects was described as a quantity or distribution of objects per 1000 cells.

The mark [3] stands for this setting: neuronal cells, dose 10 nM, 24 hours.
The mark [4] stands for this setting: neuronal cells, dose 100 nM, 24 hours.
Where [5] appears, read: neuronal cells, dose 1000 nM, 24 hours.
[6] abbreviates: neuronal cells, dose 10000 nM, 24 hours.

Where two headings read alike, the source gives them in different places. A value given as a limit tells only on which side of the number the result lay.

For the compound `CCN(CCO)CCCC(C)Nc1ccnc2cc(Cl)ccc12` (stereo not shown) [Hydroxychloroquine], the Viability in series [1] (setting [3]) was 100%; in series [1] (setting [4]), 100%; in series [1] (setting [5]), more than 75%; in series [1] (setting [6]), more than 75%. Moreover, in series [2] (24 h), the fold induction at 0.01 µM fell in the range of 1 to 1.25. Moreover, the fold induction at 0.1 µM in series [2] (24 h) lay within 0.75 to 1. Also, the fold induction at 1 µM in series [2] (24 h) lay within 0.75 to 1. For the same compound, in series [2] (24 h), the fold induction at 10 µM is 0.75 to 1. In addition, the “Number of Gigasomes Produced” value in series [2] (neuronal cells, dose 10 nM) is 30-35; in series [2] (neuronal cells, dose 100 nM) it was 20-25; in series [2] (neuronal cells, dose 1000 nM) it was 25-30; in series [2] (neuronal cells, dose 10000 nM), 20-25.
Consider `C/C(=C\c1csc(C)n1)[C@@H]1C[C@@H]2O[C@]2(C)CCC[C@H](C)[C@H](O)[C@@H](C)C(=O)C(C)(C)[C@@H](O)CC(=O)N1` [Ixabepilone], for which the Viability in series [1] (human, 24 h, 10 nM) was 50-75%. In addition, the fold induction at 0.01 µM in series [2] (24 h) lay within 2 to 3. In addition, the “Number of Gigasomes Produced” value in series [2] (neuronal cells, dose 10 nM) is reported as 65-75.
With `CC(C)(O)c1coc(S(=O)(=O)NC(=O)Nc2c3c(cc4c2CCC4)CCC3)c1` [MCC950 sodium], the Viability in series [1] (setting [3]) is listed as 100%; in series [1] (setting [4]), more than 75%; in series [1] (setting [5]), 100%; in series [1] (setting [6]) it was 100%. Also, the fold induction at 0.01 µM in series [2] (24 h) lay in the range of 1 to 1.25. Moreover, in series [2] (24 h), the fold induction at 0.1 µM fell in the range of 1 to 1.25. Further, the fold induction at 1 µM in series [2] (24 h) was 0.5 to 0.75. The fold induction at 10 µM in series [2] (24 h) was in the range of 0.75 to 1. Besides, the “Number of Gigasomes Produced” value in series [2] (neuronal cells, dose 10 nM) was 35-40; in series [2] (neuronal cells, dose 100 nM), 35-40; in series [2] (neuronal cells, dose 1000 nM), 20-25; in series [2] (neuronal cells, dose 10000 nM), 25-30.
Take `CCCCCCCCCCCCCC[N+](C)(C)C.[Br-]` [MiTMAB, reference compound]: the Viability in series [1] (setting [6]) is more than 75%. In addition, in series [2] (neuronal cells, dose 10000 nM), the “Fold Change of Gigasomes Produced vs. DMSO” value (from here on “Fold Change”) is 2.0-3.0 and the “Number of Gigasomes Produced” value is listed as 55-65.
Regarding `CN[C@H](CC(=O)O)C(=O)O` [NMDA, reference compound], the Viability in series [1] (setting [3]), in series [1] (setting [4]), in series [1] (setting [5]) and in series [1] (setting [6]) was 100% in each case. In addition, the “Fold Change” value is recorded as 0.75-1.0 in series [2] (neuronal cells, dose 10 nM); 0.75-1.0 in series [2] (neuronal cells, dose 100 nM); 0.5-0.75 in series [2] (neuronal cells, dose 1000 nM); 0.25-0.5 in series [2] (neuronal cells, dose 10000 nM). The “Number of Gigasomes Produced” value was 30-35 in series [2] (neuronal cells, dose 10 nM); 30-35 in series [2] (neuronal cells, dose 100 nM); 20-25 in series [2] (neuronal cells, dose 1000 nM); 15-20 in series [2] (neuronal cells, dose 10000 nM). Besides, the “downregulation of gigasome production” value in series [2] (neuronal cells, doses 10-10,000 nM, 24 h) is reported as “dose-dependent downregulation”.
As for `CC(=O)c1cc2c(o1)C(=O)c1ccccc1C2=O` [Napabucasin], the Viability in series [1] (setting [3]) and in series [1] (setting [4]) was 100% each time. In series [2] (24 h), the fold induction at 0.01 µM lay in the range of 1 to 1.25. Also, in series [2] (24 h), the fold induction at 0.1 µM was in the range of 1.5 to 1.75. The “Number of Gigasomes Produced” value in series [2] (neuronal cells, dose 10 nM) is reported as 35-45; in series [2] (neuronal cells, dose 100 nM) it was 45-55.
Consider `O=C(Nc1ccc(O)c(C(=O)O)c1)c1cccc(NC(=O)c2ccco2)c1` [OSS128167], for which the Viability is listed as 100% in series [1] (setting [3]), more than 75% in series [1] (setting [4]) and 100% in series [1] (setting [5]). Further, the “Fold Change” value in series [2] (neuronal cells, dose 10 nM) was 1.0-1.25; in series [2] (neuronal cells, dose 100 nM), 0.75-1.0; in series [2] (neuronal cells, dose 1000 nM), 0.75-1.0. Besides, the “Number of Gigasomes Produced” value was more than 40 in series [2] (neuronal cells, dose 10 nM); 25-30 in series [2] (neuronal cells, dose 100 nM); 25-30 in series [2] (neuronal cells, dose 1000 nM).
`O=C(Nc1ccc(O)c(C(=O)O)c1)c1cccc(NC(=O)c2ccco2)c1` [OSS_128167] returned a Viability in series [1] (setting [6]) of 100%. Further, in series [2] (neuronal cells, dose 10000 nM), the “Fold Change” value was 0.5-0.75 and the “Number of Gigasomes Produced” value was 20-25.
In the case of `C/C=C1/[C@H](O[C@@H]2O[C@H](CO)[C@@H](O)[C@H](O)[C@H]2O)OC=C(C(=O)OC)[C@H]1CC(=O)OCCc1ccc(O)c(O)c1` [Oleuropein, reference compound], the Viability in series [1] (human, 24 h, 10 nM) is 100%; in series [1] (human, 24 h, 100 nM), 100%; in series [1] (human, 24 h, 1000 nM), more than 75%; in series [1] (human, 24 h, 10000 nM), 100%. Moreover, the fold induction at 0.01 µM in series [2] (24 h) lay within 1 to 1.25. Also, the fold induction at 0.1 µM in series [2] (24 h) was in the range of 0.75 to 1. In addition, in series [2] (24 h), the fold induction at 1 µM was 0.75 to 1. The fold induction at 10 µM in series [2] (24 h) fell in the range of 0.5 to 0.75. Moreover, the “Number of Gigasomes Produced” value in series [2] (neuronal cells, dose 10 nM) is given as more than 40; in series [2] (neuronal cells, dose 100 nM), 30-35; in series [2] (neuronal cells, dose 1000 nM), 30-35; in series [2] (neuronal cells, dose 10000 nM) it was 25-30.
In series [1] (setting [5]), `COC(=O)c1ccc([C@@H]2c3[nH]c4ccccc4c3C[C@@H](C(=O)OC)N2C(=O)CCl)cc1` [RSL3, reference compound] returned a Viability of more than 75%. Also, in series [2] (neuronal cells, dose 1000 nM), the “Fold Change” value is listed as 2.0-3.0 and the “Number of Gigasomes Produced” value is reported as 55-65.
On to `CC[C@H](CO)Nc1nc(NCc2ccccc2)c2ncn(C(C)C)c2n1` [Seliciclib], for which the Viability in series [1] (setting [3]), in series [1] (setting [4]), in series [1] (setting [5]) and in series [1] (setting [6]) was 100% throughout. Also, in series [2] (24 h), the fold induction at 0.01 µM lay within 0.75 to 1. Moreover, the fold induction at 0.1 µM in series [2] (24 h) lay in the range of 0.75 to 1. In addition, in series [2] (24 h), the fold induction at 1 µM was 0.75 to 1. Besides, the fold induction at 10 µM in series [2] (24 h) is 0.5 to 0.75. Besides, the “Number of Gigasomes Produced” value was 25-30 in series [2] (neuronal cells, dose 10 nM); 25-30 in series [2] (neuronal cells, dose 100 nM); 25-30 in series [2] (neuronal cells, dose 1000 nM); 15-20 in series [2] (neuronal cells, dose 10000 nM).
For the compound `CC(C)[C@H](O)C(=O)N[C@@H](C)C(=O)N[C@@H]1C(=O)N(C)CCc2ccccc21` [Semagacestat], the Viability in series [1] (setting [3]), in series [1] (setting [4]), in series [1] (setting [5]) and in series [1] (setting [6]) was 100% in each case. For the same compound, the fold induction at 0.01 µM in series [2] (24 h) fell in the range of 0.75 to 1. The fold induction at 0.1 µM in series [2] (24 h) was in the range of 0.75 to 1. For the same compound, the fold induction at 1 µM in series [2] (24 h) fell in the range of 0.5 to 0.75. For the same compound, in series [2] (24 h), the fold induction at 10 µM lay within 0.5 to 0.75. Besides, the “Number of Gigasomes Produced” value in series [2] (neuronal cells, dose 10 nM) is on record as more than 40; in series [2] (neuronal cells, dose 100 nM), 35-40; in series [2] (neuronal cells, dose 1000 nM), 20-25; in series [2] (neuronal cells, dose 10000 nM) it was 20-25.
`CC(=O)Nc1cccc(-n2c(=O)n(C3CC3)c(=O)c3c(Nc4ccc(I)cc4F)n(C)c(=O)c(C)c32)c1` [Trametinib, reference compound]: the Viability is reported as more than 75% in series [1] (human, 24 h, 10 nM); more than 75% in series [1] (human, 24 h, 100 nM); more than 75% in series [1] (human, 24 h, 1000 nM). The fold induction at 0.01 µM in series [2] (24 h) fell in the range of 1.25 to 1.5. Moreover, in series [2] (24 h), the fold induction at 0.1 µM fell in the range of 1.25 to 1.5. Further, in series [2] (24 h), the fold induction at 1 µM was 2 to 3. The “Number of Gigasomes Produced” value in series [2] (neuronal cells, dose 10 nM) is given as 35-45; in series [2] (neuronal cells, dose 100 nM), 35-45; in series [2] (neuronal cells, dose 1000 nM), 65-75.
With `CC(/C=C/C(=O)NO)=C\[C@@H](C)C(=O)c1ccc(N(C)C)cc1` [Trichostatin A], the Viability in series [1] (setting [5]) is recorded as 50-75%. Also, in series [2] (neuronal cells, dose 1000 nM), the “Fold Change” value is 1.75-2.0 and the “Number of Gigasomes Produced” value was 55-65.
